# In US10206394B2, “Herbicidal compounds” (Syngenta Participations AG, priority 2014, dated 2019):
# Read-outs that look alike come from different tables or passages of the source.
# Columns and labels:
# Assay in all cases: Glasshouse assay for herbicidal activity (pre- and post-emergence), percentage phytotoxicity
# Format in all cases: in vivo
# [1] = system: Alopecurus myosuroides (ALOMY); conditions: Alopecurus myosuroides
# How it was run: (§1)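 Sow seed in standard soil in pots; apply test herbicide after 1 day (PRE) or about 12 days (POST). Grow on in the glasshouse, watering twice daily, cool-season species at 20/16 °C and warm-season at 24/18 °C. Score visible damage (0–100%) at 20 or 15 DAA respectively.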
# Avena fatua (AVEFA) = conditions: Avena fatua
# How it was run: as §1
# [2] = system: Echinochloa crus-galli (ECHCG); conditions: Echinochloa crus-galli
# How it was run: as §1
# Lolium perenne (LOLPE) = conditions: Lolium perenne
# How it was run: as §1
# [3] = post-emergence, 360 h, 250 g/ha, post-emergence, 15 DAA, visual assessment (100%=total damage, 0%=no damage), read-out: Post-emergence herbicidal activity (percentage phytotoxicity) ALOMY POST
# [4] = pre-emergence, 480 h, 250 g/ha, pre-emergence, 20 DAA, visual assessment (100%=total damage, 0%=no damage), read-out: Pre-emergence herbicidal activity (percentage phytotoxicity) ALOMY PRE
# [5] = post-emergence, 360 h, 250 g/ha, post-emergence, 15 DAA, visual assessment (100%=total damage, 0%=no damage), read-out: Post-emergence herbicidal activity (percentage phytotoxicity) AVEFA POST
# [6] = pre-emergence, 480 h, 250 g/ha, pre-emergence, 20 DAA, visual assessment (100%=total damage, 0%=no damage), read-out: Pre-emergence herbicidal activity (percentage phytotoxicity) AVEFA PRE
# [7] = post-emergence, 360 h, 250 g/ha, post-emergence, 15 DAA, visual assessment (100%=total damage, 0%=no damage), read-out: Post-emergence herbicidal activity (percentage phytotoxicity) ECHCG POST
# [8] = pre-emergence, 480 h, 250 g/ha, pre-emergence, 20 DAA, visual assessment (100%=total damage, 0%=no damage), read-out: Pre-emergence herbicidal activity (percentage phytotoxicity) ECHCG PRE
# [9] = post-emergence, 360 h, 250 g/ha, post-emergence, 15 DAA, visual assessment (100%=total damage, 0%=no damage), read-out: Post-emergence herbicidal activity (percentage phytotoxicity) LOLPE POST
# [10] = pre-emergence, 480 h, 250 g/ha, pre-emergence, 20 DAA, visual assessment (100%=total damage, 0%=no damage), read-out: Pre-emergence herbicidal activity (percentage phytotoxicity) LOLPE PRE
# [11] = post-emergence, 360 h, Rate 250 g/ha, post-emergence, assessed visually 15 DAA, 100%=total damage, 0%=no damage, read-out: Post-emergence herbicidal activity (percentage phytotoxicity) ALOMY POST
# [12] = pre-emergence, 480 h, Rate 250 g/ha, pre-emergence, assessed visually 20 DAA, 100%=total damage, 0%=no damage, read-out: Pre-emergence herbicidal activity (percentage phytotoxicity) ALOMY PRE
# [13] = post-emergence, 360 h, Rate 250 g/ha, post-emergence, assessed visually 15 DAA, 100%=total damage, 0%=no damage, read-out: Post-emergence herbicidal activity (percentage phytotoxicity) AVEFA POST
# [14] = pre-emergence, 480 h, Rate 250 g/ha, pre-emergence, assessed visually 20 DAA, 100%=total damage, 0%=no damage, read-out: Pre-emergence herbicidal activity (percentage phytotoxicity) AVEFA PRE
# [15] = post-emergence, 360 h, Rate 250 g/ha, post-emergence, assessed visually 15 DAA, 100%=total damage, 0%=no damage, read-out: Post-emergence herbicidal activity (percentage phytotoxicity) ECHCG POST
# [16] = pre-emergence, 480 h, Rate 250 g/ha, pre-emergence, assessed visually 20 DAA, 100%=total damage, 0%=no damage, read-out: Pre-emergence herbicidal activity (percentage phytotoxicity) ECHCG PRE
# [17] = post-emergence, 360 h, Rate 250 g/ha, post-emergence, assessed visually 15 DAA, 100%=total damage, 0%=no damage, read-out: Post-emergence herbicidal activity (percentage phytotoxicity) LOLPE POST
# [18] = pre-emergence, 480 h, Rate 250 g/ha, pre-emergence, assessed visually 20 DAA, 100%=total damage, 0%=no damage, read-out: Pre-emergence herbicidal activity (percentage phytotoxicity) LOLPE PRE
# [19] = post-emergence, 360 h, POST-emergence, rate 250 g/ha, visual score 15 DAA (100%=total damage, 0%=no damage), read-out: Post-emergence herbicidal activity (percentage phytotoxicity) ALOMY POST
# [20] = pre-emergence, 480 h, PRE-emergence, rate 250 g/ha, visual score 20 DAA (100%=total damage, 0%=no damage), read-out: Pre-emergence herbicidal activity (percentage phytotoxicity) ALOMY PRE
# [21] = post-emergence, 360 h, POST-emergence, rate 250 g/ha, visual score 15 DAA (100%=total damage, 0%=no damage), read-out: Post-emergence herbicidal activity (percentage phytotoxicity) AVEFA POST
# [22] = pre-emergence, 480 h, PRE-emergence, rate 250 g/ha, visual score 20 DAA (100%=total damage, 0%=no damage), read-out: Pre-emergence herbicidal activity (percentage phytotoxicity) AVEFA PRE
# [23] = post-emergence, 360 h, POST-emergence, rate 250 g/ha, visual score 15 DAA (100%=total damage, 0%=no damage), read-out: Post-emergence herbicidal activity (percentage phytotoxicity) ECHCG POST
# [24] = pre-emergence, 480 h, PRE-emergence, rate 250 g/ha, visual score 20 DAA (100%=total damage, 0%=no damage), read-out: Pre-emergence herbicidal activity (percentage phytotoxicity) ECHCG PRE
# [25] = post-emergence, 360 h, POST-emergence, rate 250 g/ha, visual score 15 DAA (100%=total damage, 0%=no damage), read-out: Post-emergence herbicidal activity (percentage phytotoxicity) LOLPE POST
# [26] = pre-emergence, 480 h, PRE-emergence, rate 250 g/ha, visual score 20 DAA (100%=total damage, 0%=no damage), read-out: Pre-emergence herbicidal activity (percentage phytotoxicity) LOLPE PRE
SMILES,"pest or weed control at 250 g/ha [1, 3] [%]","pest or weed control at 250 g/ha [1, 4] [%]",pest or weed control at 250 g/ha (Avena fatua (AVEFA); [5]) [%],pest or weed control at 250 g/ha (Avena fatua (AVEFA); [6]) [%],"pest or weed control at 250 g/ha [2, 7] [%]","pest or weed control at 250 g/ha [2, 8] [%]",pest or weed control at 250 g/ha (Lolium perenne (LOLPE); [9]) [%],pest or weed control at 250 g/ha (Lolium perenne (LOLPE); [10]) [%],"pest or weed control at 250 g/ha [1, 19] [%]","pest or weed control at 250 g/ha [1, 20] [%]",pest or weed control at 250 g/ha (Avena fatua (AVEFA); [21]) [%],pest or weed control at 250 g/ha (Avena fatua (AVEFA); [22]) [%],"pest or weed control at 250 g/ha [2, 23] [%]","pest or weed control at 250 g/ha [2, 24] [%]",pest or weed control at 250 g/ha (Lolium perenne (LOLPE); [25]) [%],pest or weed control at 250 g/ha (Lolium perenne (LOLPE); [26]) [%],further results
Cc1cc(-c2ncc(F)cc2F)cc(C)c1C1C(=O)CC(CC(=O)NCc2cccc(Br)c2)C1=O (stereo not drawn) [Compound B90],100,90,100,70,100,100,100,100,–,–,–,–,–,–,–,–,–
Cc1cc(C)c(C2C(=O)CC(CC(=O)NCCC3=CCCCC3)C2=O)c(C)c1 (stereo not drawn) [Compound A91],–,–,–,–,–,–,–,–,–,–,–,–,–,–,–,–,"pest or weed control at 250 g/ha [1, 11]: 10%; pest or weed control at 250 g/ha [1, 12]: 30%; pest or weed control at 250 g/ha (Avena fatua (AVEFA); [13]): 0%; pest or weed control at 250 g/ha (Avena fatua (AVEFA); [14]): 30%; pest or weed control at 250 g/ha [2, 15]: 0%; pest or weed control at 250 g/ha [2, 16]: 20%; pest or weed control at 250 g/ha (Lolium perenne (LOLPE); [17]): 70%; pest or weed control at 250 g/ha (Lolium perenne (LOLPE); [18]): 70%"
Cc1cc(-c2ncc(F)cc2F)cc(C)c1C1C(=O)C[C@@H](CC(=O)NC(C)(C)C)C1=O (stereo partly drawn) [Compound B51],100,90,100,80,100,100,100,100,–,–,–,–,–,–,–,–,–
Cc1cc(Br)cc(C)c1C1C(=O)CC(CC(=O)NCC2CC2)C1=O (stereo not drawn) [Compound B122],100,80,100,80,100,70,100,90,–,–,–,–,–,–,–,–,–
C/C=C/c1cc(C)c(C2C(=O)CC(CC(=O)NC(C)C)C2=O)c(CC)c1 (stereo not drawn) [Compound B192],–,–,–,–,–,–,–,–,100,100,100,90,100,100,100,100,–
Cc1cc(-c2ncc(F)cn2)cc(C)c1C1C(=O)CC(CC(=O)NCC(C)C)C1=O (stereo not drawn) [Compound B112],100,100,100,100,100,100,100,100,–,–,–,–,–,–,–,–,–
Cc1cc(C)c(C2C(=O)CC(CC(=O)N3CCOCC3)C2=O)c(C)c1 (stereo not drawn) [Compound A24],–,–,–,–,–,–,–,–,–,–,–,–,–,–,–,–,"pest or weed control at 250 g/ha [1, 11]: 90%; pest or weed control at 250 g/ha [1, 12]: 80%; pest or weed control at 250 g/ha (Avena fatua (AVEFA); [13]): 90%; pest or weed control at 250 g/ha (Avena fatua (AVEFA); [14]): 90%; pest or weed control at 250 g/ha [2, 15]: 100%; pest or weed control at 250 g/ha [2, 16]: 100%; pest or weed control at 250 g/ha (Lolium perenne (LOLPE); [17]): 100%; pest or weed control at 250 g/ha (Lolium perenne (LOLPE); [18]): 90%"
CCc1cc(C)cc(C)c1C1C(=O)CC(CC(=O)NCC2CC2)C1=O (stereo not drawn) [Compound B257],–,–,–,–,–,–,–,–,100,100,100,90,100,100,100,100,–
C=CC(C)NC(=O)CC1CC(=O)C(c2c(C)cc(-c3ncc(F)cn3)cc2C)C1=O (stereo not drawn) [Compound B328],–,–,–,–,–,–,–,–,100,100,100,100,100,100,100,100,–
COc1ccc(CNC(=O)CC2CC(=O)C(c3c(C)cc(C)cc3C)C2=O)cc1 (stereo not drawn) [Compound B18],80,70,90,80,90,90,100,100,–,–,–,–,–,–,–,–,–
Cc1cc(C)c(C2C(=O)CC(CC(=O)Nc3ccccn3)C2=O)c(C)c1 (stereo not drawn) [Compound B64],80,80,70,50,70,80,80,70,–,–,–,–,–,–,–,–,–
CNC(=O)CC1CC(=O)C(c2c(C)cc(-c3ncc(F)cn3)cc2C)C1=O (stereo not drawn) [Compound B280],–,–,–,–,–,–,–,–,100,100,100,100,100,100,100,100,–
